According to patent US20100041632A1, “USES OF THE CARBOXY-AMIDO-TRIAZOLE COMPOUNDS AND SALTS THEREOF” (priority 2006, published 2010):

Tests used:
IL-1β = IL-1β levels in paw tissue and serum of adjuvant arthritis rat (ELISA); assay type: in vivo; settings: administered in combination with CAI
Experimental: (§1) The adjuvant arthritis rat was prepared as described in example 8. Treatment was performed as described in example 8. Blood was collected from eve socket on day 29 and left in room temperature to allow coagulating. Then serum was separated by centrifugation at 3000 rpm for 10 min and kept in −20° C. After animals were sacrificed, the subcutaneous tissue of the right hind paw and that surrounding the tarsotibial joints was removed, broke into pieces, and placed in 5 ml normal saline (0.9%). The tissues were homogenized in a high speed homogenizer. Then the homogenate was centrifuged at 4° C. and 10,000 rpm for 15 min. The supernatants were collected and stored at −20° C. until further analysis.
(§2) IL-1β and TNF-α levels in paw tissue and serum were measured using specific rat ELISA kits according to the manufacturer's instructions.

TNF-α = TNF-α levels in paw tissue and serum of adjuvant arthritis rat (ELISA); assay type: in vivo; settings: administered in combination with CAI
Experimental: as §1, with “Blood” for “The adjuvant arthritis rat was prepared as described in example 8. Treatment was performed as described in example 8. Blood”
as §2

rats = assay: Granulomatous tissue formation (implanted tampon); assay type: in vivo; settings: 7 days; CAI 20 mg/kg/day p.o.; dexamethasone 0.067 mg/kg/day i.p.
Experimental: 44 rats (160 g) were randomly divided into 4 groups (11 rats/group). Animals were slightly anaesthetized by ether. After sterilization, the groin was cut bilaterally. A sterile tampon (50 mg) was implanted (sc). On the same day, the following treatments were administered: N.S. (i.p., control group), 0.067 mg/kg/day dexamethasone (i.p., positive control), 20 mg/kg/day CAI (p.o., dissolved in PEG 400, test group) and 0.067 mg/kg/day dexamethasone+20 mg/kg/day CAI (p.o., dissolved in PEG 400, combination group). After 7 days administration, the animals were sacrificed. The cotton was removed. The granulomatous tissue was dried at 60° C. oven for 12 hr and weighed. Increment in the dry weight of the tissue was taken as measure of granuloma formation. The Increment was adjusted for respective body weight, and the mean value for each group was calculated.

Kunming mice [1] = assay: Croton oil-induced ear edema mouse model; assay type: in vivo; settings: ear weight difference 4 hours after 2% croton oil; CAI/analogs 2 mg/ml ig, dexamethasone 0.2 mg/ml ip, 0.1 ml/10 g/day, 3 days
Experimental: Male Kunming mice, weighted 18-22 g, were randomly divided to the following experiment groups, 20 mice/group:
Negative control: normal saline was injected (ig), 0.1 ml/10 g/day for 3 consecutive days.
Vehicle control: PEG400 was injected (ig), […] for 3 consecutive days.
Positive control: Dexamethasone (0.2 mg/ml) was injected (ip), 0.1 ml/10 g/day for 3 consecutive days.
Test group: CAI or its analogs (2 mg/ml, analogs are as described in example 5) was administered (ig), 0.1 ml/10 g/day for 3 consecutive days.
8 hours after the last administration, 20 μl of croton oil solution (2%) was applied to the right ear of each mouse. The left ear remained untreated as control. The animals were sacrificed 4 hours later, and a piece of tissue was punched from the same position of the treated and untreated ear. The tissues were weighed on a 0.1 mg balance. The difference in weight between the two pieces of tissue of each mouse was taken as a measure of swelling intensity.

Wistar rats = assay: Adjuvant induced arthritis (AA) of rat, paw oedema; assay type: in vivo
Experimental: Negative control (AA+NS): […] positive control (AA+Dex): dexamethasone, i.p., 0.067 mg/kg/day. Vehicle control (AA+PEG400): […] CAI (AA+CAI): 20 mg/ml CAI, ig, 0.1 ml/100 g/day (20 mg/kg/day). Combination (AA+CAI+Dex): dexamethasone, 0.067 mg/kg/day (i.p.) plus CAI 20 mg/kg/day (p.o.). Normal volumes of left and right hind paw were measured before adjuvant injection. […]

Kunming mice [2] = assay: Hot plate test (analgesic effect); assay type: in vivo
Experimental: Kunming mice (18-22 g, female) were randomly divided into 4 groups with 20 animals per group.
(§3) Control group with dissolvent: 10 μl PEG400 was administered (ig) twice with the interval of 24 hours. The pain intensity test was carried out 8 hours after the second administration. 200 μl N.S. was injected (sc) 5 minutes before the test.
(§4) Morphine/PEG400 group: 10 μl PEG400 was administered (ig) twice with the interval of 24 hours. The pain intensity test was carried out 8 hours after the second administration. Morphine (2 mg/kg body weight) was injected (sc) 5 minutes before the test.
(§5) CAI/N.S. group: CAI (20 mg/kg body weight, 2 mg/ml) was administered (ig) twice with the interval of 24 hours. The pain intensity test was carried out 8 hours after the second administration. 200 μl N.S. was injected (sc) 5 minutes before the test.
(§6) The pain intensity test was carried out 8 hours after the second administration. Morphine (2 mg/kg body weight) was injected (sc) 5 minutes before the test.
The mice were placed onto a hot plate (53±0.5° C.) and the latency periods (second) of hopping responses were recorded as the pain threshold index.

Kunming mice [3] = assay: Radiant heat test (tail-flick); assay type: in vivo
Experimental: The radiant heat dolorimeter (Collumbus Instruments) is used in this model with the tail-flick mode and the exposure rate of 20. The latency periods (TFL) starting from the beginning of exposure to the tail-flick responses were recorded as the pain threshold. The exposure time lasted for 16 seconds.
Kunming mice (18-22 g, male) are tested for the basic pain threshold before the test with drug administration, and those with pain threshold longer than 16 seconds are excluded. The selected mice are divided into 4 groups with 15 animals per group.
as §3, §4, §5
The pain intensity test was carried out 8 hours after the second administration, morphine (2 mg/kg body weight) was injected (sc) 5 minutes before the test.
The pain threshold of each mouse was tested before and after morphine or N.S. injection. The values after drug administration minus those before drug administration were considered to be the changing index of pain threshold.

Kunming mice [4] = assay: Formalin test (analgesic effect); assay type: in vivo
Experimental: 320 Kunming mice (18-22 g, half male and half female) were divided into 4 groups randomly with 80 animals in each group.
Control group with dissolvent (PEG400/N.S.): 10 μl PEG400 was administered (ig) twice with the interval of 24 hours. The pain intensity test was carried out 8 hours after the second administration. 200 μl N.S. is injected (sc) 5 minutes before the test.
as §4, §5, §6
5 minutes after the morphine or N.S. injection, 20 μl 2% formalin was injected (sc) into the subplantar space of the hind paw. The animals were placed immediately in a glass cylinder hanging on a holder, with a mirror placed below with 30° slope to observe the paw responses. The pain responses of the animals with injected paws were recorded; a pain ranking was recorded as follows: 3=the injected paw is licked, bitten, or shaken; 2=the injected paw is elevated and is not in contact with any other surface; 1=the injected paw has little or no weight on it; 0=the injected paw is not favored. The duration of each of the 4 behavioral categories was recorded. The observation lasted for 15 minutes. A pain intensity score was calculated by multiplying the amount of time spent in each category by its assigned category score and adding these products together.

Kunming mice [5] = assay: Effect of CAI on drug addiction caused by morphine (naloxone-induced jumping)
Experimental: 160 Kunming mice (18-22 g, half male and half female) were divided into 4 groups randomly, with 40 mice per group:
Control group with solvent, PEG400/N.S. (10 μl/g/day PEG400, (ig), 4 days);
Group treated with CAI, CAI/N.S. (CAI is resolved in PEG400 to reach a final concentration of […], 20 mg CAI/kg/day was administered (ig) for 4 days, N.S. was taken according to morphine administration in table 1);
Group treated with morphine, PEG400/morphine (10 μl/g/day PEG400 was administered (ig) for 4 days, morphine was administered according to the table below);
4 hours after the morphine administration on the fifth day, animals of each group was injected (ip) with 1 mg/kg naloxone and then put into a tank (5000 ml) immediately. The jump frequency in 30 minutes was recorded. Two-factor analysis of variance by SPSS was performed to analyse the experiment results.

SMILES: CC(=O)O.NC(=O)c1nnn(Cc2cc(Cl)c(C(=O)c3ccc(Cl)cc3)c(Cl)c2)c1N [CAI acetate]
- Inhibitory effect on serum levels of IL-1β (in words) (IL-1β): obvious and even more pronounced
- Inhibitory effect on serum levels of TNF-α (in words) (TNF-α): obvious and even more pronounced

SMILES: Cl.NC(=O)c1nnn(Cc2cc(Cl)c(C(=O)c3ccc(Cl)cc3)c(Cl)c2)c1N [CAI hydrochlorate]
- Inhibitory effect on serum levels of IL-1β (in words) (IL-1β): obvious and even more pronounced
- Inhibitory effect on serum levels of TNF-α (in words) (TNF-α): obvious and even more pronounced

SMILES: C[C@@H]1C[C@H]2[C@@H]3CCC4=CC(=O)C=C[C@]4(C)[C@@]3(F)[C@@H](O)C[C@]2(C)[C@@]1(O)C(=O)CO [dexamethasone, reference compound]
- granulomatous tissue:bady weight ratio (mean ± std) (rats): 0.064 ± 0.00495
- Swelling intensity (mg) mean ± std (Kunming mice [1]): 1.5 ± 0.4 mg
- Primary paw oedema (%), mean ± std (Wistar rats; 1 d, CAI 20 mg/kg/day ig, Dex 0.067 mg/kg/day i.p.): 111.3 ± 13.6 %
- Primary paw oedema (%), mean ± std (Wistar rats; 2 d): 121.9 ± 16.0 %
- Primary paw oedema (%), mean ± std (Wistar rats; 5 d): 107.4 ± 12.5 %
- Primary paw oedema (%), mean ± std (Wistar rats; 8 d): 103.6 ± 14.0 %
- Primary paw oedema (%), mean ± std (Wistar rats; 11 d): 100.3 ± 21.0 %
- Primary paw oedema (%), mean ± std (Wistar rats; 14 d): 100.0 ± 11.3 %
- Secondary paw oedema (%), mean ± std (Wistar rats; 14 d, right hind paw): 1.1 ± 1.0 %
- Primary paw oedema (%), mean ± std (Wistar rats; 17 d): 95.3 ± 15.7 %
- Secondary paw oedema (%), mean ± std (Wistar rats; 17 d): 1.9 ± 1.4 %
- Primary paw oedema (%), mean ± std (Wistar rats; 20 d): 83.9 ± 24.0 %
- Secondary paw oedema (%), mean ± std (Wistar rats; 20 d): 2.8 ± 0.9 %
- Primary paw oedema (%), mean ± std (Wistar rats; 23 d): 80.4 ± 17.8 %
- Secondary paw oedema (%), mean ± std (Wistar rats; 23 d): 4.6 ± 1.4 %
- Primary paw oedema (%), mean ± std (Wistar rats; 26 d): 78.6 ± 23.1 %
- Secondary paw oedema (%), mean ± std (Wistar rats; 26 d): 3.6 ± 1.7 %
- Primary paw oedema (%), mean ± std (Wistar rats; 29 d): 73.9 ± 18.0 %
- Secondary paw oedema (%), mean ± std (Wistar rats; 29 d): 2.5 ± 1.7 %

SMILES: CN1CC[C@]23c4c5ccc(O)c4O[C@H]2[C@@H](O)C=C[C@H]3[C@H]1C5 [morphine, reference compound]
- Pain threshold (sec, mean ± std) (Kunming mice [2]; hot plate 53±0.5° C., latency of hopping response, CAI 20 mg/kg ig twice, morphine 2 mg/kg sc): 31.9 ± 12.1 s
- Analgesic effect in hot plate test (in words) (Kunming mice [2]; two-factor ANOVA): extends the pain response time very significantly
- Analgesic effect in radiant heat test (in words) (Kunming mice [3]; compared with the control group): extended the pain threshold time very significantly
- Pain threshold change (seconds, mean ± std) (Kunming mice [3]; tail-flick latency after minus before drug, CAI 20 mg/kg ig twice, morphine 2 mg/kg sc): 6.95 ± 5.69 s
- Pain intensity score (mean ± std) (Kunming mice [4]; 2% formalin sc hind paw, 15 minutes observation, CAI 20 mg/kg ig twice, morphine 2 mg/kg sc): 756 ± 441
- Analgesic effect in formalin test (in words) (Kunming mice [4]; pain scores compared with the control group): decrease significantly
- Mean number of jump (Kunming mice [5]; jump frequency in 30 minutes after naloxone 1 mg/kg ip, CAI 20 mg/kg/day ig 4 days, morphine per Table 1, mean ± std): 41 ± 58
- Addiction / withdrawal syndrome (in words) (Kunming mice [5]; naloxone-induced jumping, two-factor ANOVA vs PEG400/N.S.): causes obvious withdrawal syndrome
